According to patent publication US20100113421A1, “NON-NUCLEOSIDE REVERSE TRANSCRIPTASE INHIBITORS” (priority 2006, published 2010):
Where two headings read alike, the source gives them in different places.

What was measured:
[1] = tested on: HIV strain containing the Y181C mutation; experiment: Spread assay, Y181C mutant strain; type: cell-based
Procedure, shortened: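 Acute HIV-1 infection of T-lymphoid cells run in the presence of 10% FBS, […]; potency expressed as CIC95.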

[2] = tested on: mutant strain containing both the K103N and Y181C mutations; experiment: Spread assay, mutant strain containing both K103N and Y181C; type: cell-based, HIV
Experimental: Assays for the inhibition of acute HIV-1 infection of T-lymphoid cells (alternatively referred to herein as the “spread assay”) were conducted in accordance with Vacca, J. P. et al., Proc. Natl. Acad. Sci. USA 1994, 91: 4096. The assays (using 10% FBS) tested for inhibition of wild type HIV-1 and of HIV strains containing the Y181C or K103N mutation. […] (Note that the compound of Example 6 was tested only up to a 833 nM concentration and the CIC95 value was determined to be >833 nM. The compound of Example 78 was not tested in the Y1818C assay.) The compounds of Examples 1 to 119 (including Examples 70A and 70B) had CIC95 values of less than 1000 nanomolar in the assay employing the K103N mutant strain. In an analogous assay employing a mutant strain containing both the K103N and Y181C mutations, the compounds of Examples 70A, 70B and 78-115 had CIC95 values of less than 1000 nanomolar.

[3] = Human immunodeficiency virus 1, read-out: CIC95
[4] = Human immunodeficiency virus 1, analogous spread assay, K103N and Y181C double mutant strain, read-out: CIC95
[5] = Human immunodeficiency virus 1, spread assay, 10% FBS, Y181C mutant strain, read-out: CIC95

SMILES | IC95 [1, 3] [µM] | IC95 [2, 3] [µM] | IC95 [2, 4] [µM] | IC95 [1, 5] [µM]
CC(C)c1c(C(=O)N(C)Cc2ccc3ncccc3c2Cl)[nH]c(C(N)=O)c1S(=O)(=O)c1ccccc1 [Example 70A, 3-isopropyl-N-methyl-4-(phenylsulfonyl)-N-[(5-chloroquinolin-6-yl)methyl]-1H-pyrrole-2,5-dicarboxamide] | < 8 | < 1 |  | 
CC(C)c1c(C(=O)N(C)Cc2cc3cccnc3cc2Cl)[nH]c(C(N)=O)c1S(=O)(=O)c1ccccc1 [Example 70B, 3-isopropyl-N-methyl-4-(phenylsulfonyl)-N-[(7-chloroquinolin-6-yl)methyl]-1H-pyrrole-2,5-dicarboxamide] | < 8 | < 1 |  | 
Cc1c(C(=O)N2CCCc3ccccc3C2)[nH]c(C(N)=O)c1S(=O)(=O)c1ccccc1 [Example 78, 4-Methyl-3-(phenylsulfonyl)-5-(1,3,4,5-tetrahydro-2H-2-benzazepine-2-ylcarbonyl)-1H-pyrrole-2-carboxamide] |  |  | < 1 | 
Cc1cc(C)cc(S(=O)(=O)c2c(C(N)=O)[nH]c(C(=O)N3CCCc4ccccc4C3)c2C)c1 [Example 79, 4-Methyl-3-(3,5-dimethylphenylsulfonyl)-5-(1,3,4,5-tetrahydro-2H-2-benzazepine-2-ylcarbonyl)-1H-pyrrole-2-carboxamide] |  |  | < 1 | < 8
Cc1cc(C)cc(S(=O)(=O)c2c(C(N)=O)[nH]c(C(=O)N3CCCc4sccc4C3)c2C)c1 [Example 80, 3-[(3,5-Dimethylphenyl)sulfonyl]-4-methyl-5-(4,6,7,8-tetrahydro-5H-thieno[3,2-c]azepin-5-ylcarbonyl)-1H-pyrrole-2-carboxamide] |  |  | < 1 | < 8
COc1ccc2c(c1)CN(C(=O)c1[nH]c(C(N)=O)c(S(=O)(=O)c3cc(Cl)cc(Cl)c3)c1C)CCC2 [Example 81, 3-[(3,5-dichlorophenyl)sulfonyl]-4-methyl-5-(8-methoxy-1,3,4,5-tetrahydro-2H-2-benzazepin-2-ylcarbonyl)-1H-pyrrole-2-carboxamide] |  |  | < 1 | < 8
Cc1c(C(=O)N2CCCc3ccc(O)cc3C2)[nH]c(C(N)=O)c1S(=O)(=O)c1cc(Cl)cc(Cl)c1 [Example 82, 3-[(3,5-dichlorophenyl)sulfonyl]-4-methyl-5-(8-hydroxy-1,3,4,5-tetrahydro-2H-2-benzazepin-2-ylcarbonyl)-1H-pyrrole-2-carboxamide] |  |  | < 1 | < 8
Cc1c(C(=O)N2CCCc3ccccc3C2)[nH]c(C(N)=O)c1S(=O)(=O)c1cc(Cl)cc(Cl)c1 [Example 83, 3-[(3,5-dichlorophenyl)sulfonyl]-4-methyl-5-(1,3,4,5-tetrahydro-2H-2-benzazepin-2-ylcarbonyl)-1H-pyrrole-2-carboxamide] |  |  | < 1 | < 8
Cc1c(C(=O)N(C)Cc2ccc(Cl)cc2Cl)[nH]c(C(N)=O)c1S(=O)(=O)N1CCCC1 [Example 116, N-(2,4-dichlorobenzyl)-N,3-dimethyl-4-(1-pyrrolidinylsulfonyl)-1H-pyrrole-2,5-dicarboxamide] |  |  |  | < 8
Cc1c(C(=O)N(C)Cc2ccccc2Cl)[nH]c(C(=O)NCc2ccccn2)c1S(=O)(=O)N1CCCC1 [Example 117, N-(2-chlorobenzyl)-N,3-dimethyl-N′-(2-pyridinylmethyl)-4-(1-pyrrolidinylsulfonyl)-1H-pyrrole-2,5-dicarboxamide] |  |  |  | < 8
Cc1c(C(=O)N(C)Cc2ccc(Cl)cc2Cl)[nH]c(C(N)=O)c1S(=O)(=O)N1CCCCC1 [Example 118, N-(2,4-dichlorobenzyl)-N,3-dimethyl-4-(1-piperidinylsulfonyl)-1H-pyrrole-2,5-dicarboxamide] |  |  |  | < 8
Cc1c(C(=O)N(C)Cc2ccccc2Cl)[nH]c(C(N)=O)c1S(=O)(=O)N1CCCCC1 [Example 119, N-(2-chlorobenzyl)-N,3-dimethyl-4-(1-piperidinylsulfonyl)-1H-pyrrole-2,5-dicarboxamide] |  |  |  | < 8
